In BindingDB's records for patent US11433071 (Incyte Corporation; Incyte Holdings Corporation, 2022) one finds IC50 data, which are given here for eleven compounds.

SMILES strings stand for the structures.

In one test the target is T1, Phosphatidylinositol 4,5-bisphosphate 3-kinase catalytic subunit delta isoform (Homo sapiens, UniProt O00329).
T1 sequence (O00329 whole entry): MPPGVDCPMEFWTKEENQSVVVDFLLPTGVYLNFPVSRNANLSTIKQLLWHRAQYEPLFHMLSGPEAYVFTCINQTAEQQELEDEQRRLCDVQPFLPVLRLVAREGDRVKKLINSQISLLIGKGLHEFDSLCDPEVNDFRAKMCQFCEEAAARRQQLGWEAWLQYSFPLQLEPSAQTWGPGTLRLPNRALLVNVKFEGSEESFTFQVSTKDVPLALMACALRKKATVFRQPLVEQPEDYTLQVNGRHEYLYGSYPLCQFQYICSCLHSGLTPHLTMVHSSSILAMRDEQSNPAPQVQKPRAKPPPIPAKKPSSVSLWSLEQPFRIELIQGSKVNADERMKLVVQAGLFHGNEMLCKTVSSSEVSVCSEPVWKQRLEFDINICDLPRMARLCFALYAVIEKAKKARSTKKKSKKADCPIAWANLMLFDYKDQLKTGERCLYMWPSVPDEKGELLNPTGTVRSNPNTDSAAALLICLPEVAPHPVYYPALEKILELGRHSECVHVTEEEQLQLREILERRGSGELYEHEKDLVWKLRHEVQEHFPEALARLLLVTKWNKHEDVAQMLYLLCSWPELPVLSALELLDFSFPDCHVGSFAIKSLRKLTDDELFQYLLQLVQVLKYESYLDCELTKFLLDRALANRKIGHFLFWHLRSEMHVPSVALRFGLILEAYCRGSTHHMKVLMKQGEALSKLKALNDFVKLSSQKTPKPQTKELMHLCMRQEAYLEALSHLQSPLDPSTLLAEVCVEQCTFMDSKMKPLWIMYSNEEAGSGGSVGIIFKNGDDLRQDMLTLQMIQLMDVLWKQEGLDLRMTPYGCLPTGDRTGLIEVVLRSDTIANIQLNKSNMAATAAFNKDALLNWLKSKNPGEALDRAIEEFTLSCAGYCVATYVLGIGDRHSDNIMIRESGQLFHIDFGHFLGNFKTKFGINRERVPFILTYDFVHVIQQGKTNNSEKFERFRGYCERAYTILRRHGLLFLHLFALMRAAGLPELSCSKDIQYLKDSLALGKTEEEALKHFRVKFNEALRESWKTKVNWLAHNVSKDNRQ
The experiment in a line: PI3Kδ Scintillation Proximity Assay. The protocol: The kinase reaction was conducted in polystyrene 384-well matrix white plate from Thermo Fisher Scientific in a final volume of 25 μL. Inhibitors were first diluted serially in DMSO and added to the plate wells before the addition of other reaction components. The final concentration of DMSO in the assay was 0.5%. The PI3K assays were carried out at room temperature in 20 mM MOPS, pH 6.7, 10 mM MgCl2, 5 mM DTT and CHAPS 0.03%. Reactions were initiated by the addition of ATP, the final reaction mixture consisted of 20 μM PIP2, 20 μM ATP, 0.2 μCi [γ-33P] ATP, 4 nM PI3Kδ. […] 25 mM EDTA, 400 µM ATP. The final concentration of SPA beads was 1.0 mg/mL. After the plate sealing, plates were shaken overnight at room temperature and centrifuged at 1800 rpm for 10 minutes, the radioactivity of the product was determined by scintillation counting on Topcount (Perkin-Elmer).
Background: In a scintillation proximity assay essentially only radioactivity close to the scintillant gives light.
Broadly, the IC50 is the concentration that gives 50% inhibition. A higher IC50 goes with a need for much substance. Take `CCOc1c(C(C)n2nc(C)c3c(N)ncnc32)cc(C)c(C#N)c1C1CN(c2cnn(C)c2)C1` (stereo unspecified) [US11433071, Example 343]: the concentration for half-maximal inhibition (IC50) is less than 0.01 µM. Regarding `CCOc1c(C(C)n2nc(C)c3c(N)ncnc32)cc(Cl)c(C#N)c1C1CN(c2cncc(C#N)c2)C1` (stereo unspecified) [US11433071, Example 330], the IC50 is less than 0.01 µM. `CCOc1c(C(C)n2nc(C)c3c(N)ncnc32)cc(C)c(C#N)c1C1CN(c2cncc(S(C)(=O)=O)c2)C1` (stereo unspecified) [US11433071, Example 335]: the IC50 is less than 0.01 µM. Turning to `CCOc1c(C(C)n2nc(C)c3c(N)ncnc32)cc(Cl)c(C#N)c1C1CN(N2CC(C#N)C2)C1` (stereo unspecified) [US11433071, Example 342], the IC50 was less than 0.01 µM. Take `COc1c([C@H](C)n2cc(C)c(=O)c3c(N)ncnc32)cc(Cl)c(C)c1-c1ccc(C[C@@H](C)O)nc1` [US11433071, Example 362]: the IC50 was less than 0.01 µM.

Take `CCOc1c(C(C)n2nc(C)c3c(N)ncnc32)cc(Cl)c(C#N)c1C1CN(c2cncc(C(=O)N(C)C)c2)C1` (stereo unspecified) [US11433071, Example 331]: the IC50 was less than 0.01 µM. Still for that read-out and setting: as for `CCOc1c(C(C)n2nc(C)c3c(N)ncnc32)cc(Cl)c(C#N)c1C1CN(c2ccc(-c3cnn(C)n3)nc2)C1` (stereo unspecified) [US11433071, Example 337], the figure is less than 0.01 µM. As for `CCOc1c(C(C)n2nc(C)c3c(N)ncnc32)cc(Cl)c(C#N)c1C1CN(c2ccnc(C(=O)N(C)C)c2)C1` (stereo unspecified) [US11433071, Example 334], the 50% inhibitory concentration (IC50) is less than 0.01 µM. Take `CCOc1c(C(C)n2nc(C)c3c(N)ncnc32)cc(Cl)c(C#N)c1C1CN(N2CC(COC)C2)C1` (stereo unspecified) [US11433071, Example 341]: the IC50 was less than 0.01 µM. Compound `CCOc1c(C(C)n2nc(C)c3c(N)ncnc32)cc(Cl)c(C#N)c1C1CN(c2ccc(-c3nnn(C)n3)nc2)C1` (stereo unspecified) [US11433071, Example 336] returned an IC50 of less than 0.01 µM.

A further test deals with T1, Phosphatidylinositol 4,5-bisphosphate 3-kinase catalytic subunit delta isoform. The experiment in a line: PI3K Enzyme Assay. The protocol: Materials: Lipid kinase substrate, phosphoinositol-4,5-bisphosphate (PIP2), are purchased from Echelon Biosciences (Salt Lake City, Utah). PI3K isoforms α, β, δ and γ are purchased from Millipore (Bedford, Mass.). ATP, MgCl2, DTT, EDTA, MOPS and CHAPS are purchased from Sigma-Aldrich (St. Louis, Mo.).The kinase reaction are conducted in clear-bottom 96-well plate from Thermo Fisher Scientific in a final volume of 24 μL. Inhibitors are first diluted serially in DMSO and added to the plate wells before the addition of other reaction components. The final concentration of DMSO in the assay is 0.5%. The PI3K assays are carried out at room temperature in 20 mM MOPS, pH 6.7, 10 mM MgCl2, 5 mM DTT and CHAPS 0.03%. The reaction mixture is prepared containing 50 μM PIP2, kinase and varying concentration of inhibitors. Reactions are initiated by the addition of ATP containing 2.2 μCi [γ-33P]ATP to a final concentration of 1000 μM. The final concentration of PI3K isoforms α, β, δ and γ in the assay were 1.3, 9.4, 2.9 and 10.8 nM, respectively. Reactions are incubated for 180 minutes and terminated by the addition of 100 μL of 1 M potassium phosphate pH 8.0, 30 mM EDTA quench buffer. […] After the plate sealing, the radioactivity of the product is determined by scintillation counting on Topcount (Perkin-Elmer). […]
Consider `COc1c([C@@H](C)n2cc(C)c(=O)c3c(N)ncnc32)cc(Cl)c(C)c1-c1ccc(C[C@H](C)O)nc1` [US11433071, Example 361], for which the IC50 was greater than 0.5 µM.
